Data taken from patent publication US20230212144A1, “5-MEMBERED HETEROARYL DERIVATIVE CONTAINING AT LEAST ONE N, AND PHARMACEUTICAL COMPOSITION FOR PREVENTING OR TREATING MENTAL DISORDERS, CONTAINING SAME AS ACTIVE INGREDIENT” (DAEGU-GYEONGBUK MEDICAL INNOVATION FOUNDATION, priority 2020, published 2023).

Tests used:
[1] = biological target: dopamine transporter (DAT) (Homo sapiens, UniProt Q01959); experiment: Dopamine reuptake inhibition, [3H]-DA, HEK-293 cells transfected with dopamine transporter cDNA; conditions: for Triple reuptake inhibition (Ratio %) DAT: compound 1 μM, relative to control without compound (100%), lower value = stronger inhibition
dopamine transporter (DAT), sequence (Q01959 whole entry, species assumed): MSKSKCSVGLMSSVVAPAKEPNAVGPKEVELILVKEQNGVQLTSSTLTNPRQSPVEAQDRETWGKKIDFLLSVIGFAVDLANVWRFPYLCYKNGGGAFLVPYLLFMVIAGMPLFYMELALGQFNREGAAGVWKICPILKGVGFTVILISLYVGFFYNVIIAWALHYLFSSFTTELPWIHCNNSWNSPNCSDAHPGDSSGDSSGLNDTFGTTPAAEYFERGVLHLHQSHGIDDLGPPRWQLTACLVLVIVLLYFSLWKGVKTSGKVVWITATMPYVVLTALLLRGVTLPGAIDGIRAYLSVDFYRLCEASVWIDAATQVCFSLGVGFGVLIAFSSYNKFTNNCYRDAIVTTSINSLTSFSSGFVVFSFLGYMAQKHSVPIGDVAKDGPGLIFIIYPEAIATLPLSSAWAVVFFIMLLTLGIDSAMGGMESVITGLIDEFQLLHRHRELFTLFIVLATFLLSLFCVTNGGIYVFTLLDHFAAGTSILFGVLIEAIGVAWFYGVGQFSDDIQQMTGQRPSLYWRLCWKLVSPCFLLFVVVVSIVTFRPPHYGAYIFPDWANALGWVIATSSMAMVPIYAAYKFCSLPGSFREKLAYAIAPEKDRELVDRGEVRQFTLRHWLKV
Protocol: (§1) After removing the medium, each compound of Examples or Comparative Examples diluted to 1 μM in uptake buffer was added to a concentration of 200 μL/well and cultured at 37° C. for 15 minutes. 100 μL of uptake buffer containing 20-30 nM [3H]-DA was added and cultured at 37° C. for 5 minutes. The reaction solution was quickly removed and washed three times with 1 mL ice-cold uptake buffer. After dissolving the resultant in 1% SDS (0.5 mL), the degree of binding of radioisotope-labeled dopamine to the transporter was measured.
(§2) In addition, when evaluating the reuptake inhibitory effect on dopamine, norepinephrine, and serotonin, the same method was performed without treating each compound of Examples or Comparative Examples as a control, the degree of binding of radioisotope-labeled dopamine, norepinephrine, and serotonin to the transporter was measured, and by using this as a reference (100%), the triple reuptake inhibitory effect was evaluated as a relative ratio (Ratio %). That is, in the control group, the binding of dopamine, norepinephrine, and serotonin to transporters is not inhibited, but when each compound of Examples is treated and thus the binding is inhibited, the Ratio % value decreases.

[2] = biological target: norepinephrine transporter (NET) (Homo sapiens, UniProt P23975); experiment: Norepinephrine reuptake inhibition, [3H]-NE, cells transfected with NE transporter cDNA; conditions: for Triple reuptake inhibition (Ratio %) NET: compound 1 μM, relative to control without compound (100%), lower value = stronger inhibition
norepinephrine transporter (NET), sequence (P23975 whole entry, species assumed): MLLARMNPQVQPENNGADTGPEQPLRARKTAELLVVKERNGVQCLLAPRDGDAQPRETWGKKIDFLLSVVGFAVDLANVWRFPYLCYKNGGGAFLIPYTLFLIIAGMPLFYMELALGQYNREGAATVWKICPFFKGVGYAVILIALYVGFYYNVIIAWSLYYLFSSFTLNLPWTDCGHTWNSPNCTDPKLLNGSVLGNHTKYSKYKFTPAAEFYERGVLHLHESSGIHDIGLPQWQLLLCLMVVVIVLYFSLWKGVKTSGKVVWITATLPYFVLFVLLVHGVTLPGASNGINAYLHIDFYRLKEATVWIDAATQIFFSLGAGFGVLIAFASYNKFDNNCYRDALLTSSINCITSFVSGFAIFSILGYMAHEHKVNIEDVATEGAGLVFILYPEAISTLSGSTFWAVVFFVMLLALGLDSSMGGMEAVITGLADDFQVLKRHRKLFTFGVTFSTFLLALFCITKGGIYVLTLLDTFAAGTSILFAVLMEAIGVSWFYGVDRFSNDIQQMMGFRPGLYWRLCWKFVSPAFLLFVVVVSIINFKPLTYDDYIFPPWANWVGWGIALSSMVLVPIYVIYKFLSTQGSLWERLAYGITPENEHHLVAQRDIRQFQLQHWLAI
Protocol: as §1
(§3) For norepinephrine(NE) and serotonin(5-HT), the degree of binding of radioisotope-labeled norepinephrine or serotonin to the transporter was measured in the same manner as above, except that cells transfected with NE or 5-HT transporter cDNA were used and [3H]-NE or [3H]-5-HT was used as a substrate.
as §2

[3] = biological target: serotonin transporter (SERT) (Homo sapiens, UniProt P31645); experiment: Serotonin reuptake inhibition, [3H]-5-HT, cells transfected with 5-HT transporter cDNA; conditions: for Triple reuptake inhibition (Ratio %) SERT: compound 1 μM, relative to control without compound (100%), lower value = stronger inhibition
serotonin transporter (SERT), sequence (P31645 whole entry, species assumed): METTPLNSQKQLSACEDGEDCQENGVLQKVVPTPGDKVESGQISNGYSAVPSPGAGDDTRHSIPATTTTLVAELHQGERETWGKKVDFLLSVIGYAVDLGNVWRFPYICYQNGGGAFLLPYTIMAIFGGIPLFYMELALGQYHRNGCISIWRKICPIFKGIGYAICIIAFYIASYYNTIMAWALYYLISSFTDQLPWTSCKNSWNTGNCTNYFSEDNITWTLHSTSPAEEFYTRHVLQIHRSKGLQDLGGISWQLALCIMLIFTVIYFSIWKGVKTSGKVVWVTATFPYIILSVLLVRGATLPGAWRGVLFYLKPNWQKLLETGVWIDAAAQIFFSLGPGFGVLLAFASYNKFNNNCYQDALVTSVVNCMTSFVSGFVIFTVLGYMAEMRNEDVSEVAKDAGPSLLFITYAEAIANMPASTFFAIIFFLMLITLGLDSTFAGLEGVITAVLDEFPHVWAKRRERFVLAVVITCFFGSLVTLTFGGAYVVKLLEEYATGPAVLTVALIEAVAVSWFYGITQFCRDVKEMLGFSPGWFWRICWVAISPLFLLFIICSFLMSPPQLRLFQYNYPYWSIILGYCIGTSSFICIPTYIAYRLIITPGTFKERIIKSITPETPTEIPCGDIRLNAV
Protocol: as §1, §3, §2

Structure (SMILES) | IC50 [1] [nM] | Triple reuptake inhibition (Ratio %) DAT [1] [%] | IC50 [2] [nM] | Triple reuptake inhibition (Ratio %) NET [2] [%] | IC50 [3] [nM] | Triple reuptake inhibition (Ratio %) SERT [3] [%]
c1ccc(C2CCN(Cc3nnc(-c4cc5ccccc5[nH]4)[nH]3)CC2)cc1 [Example 3, 2-(5-((4-phenylpiperidin-1-yl)methyl)-4H-1,2,4-triazol-3-yl)-1H-indole] | – | 81.14 | – | 124.39 | – | 95.94
c1ccc(CN2CCN(Cc3nnc(-c4cc5ccccc5[nH]4)[nH]3)CC2)cc1 [Example 4, 2-(5-((4-benzylpiperazin-1-yl)methyl)-4H-1,2,4-triazol-3-yl)-1H-indole] | – | 22.39 | – | 64.76 | – | 90.26
Clc1ccc(CC2CCN(Cc3nnc(-c4cc5ccccc5[nH]4)[nH]3)CC2)cc1Cl [Example 5, 2-(5-((4-(3,4-dichlorobenzyl)piperidin-1-yl)methyl)-4H-1,2,4-triazol-3-yl)-1H-indole] | – | 88.53 | – | 78.01 | – | 91.11
COc1ccc(CC2CCN(Cc3nnc(-c4cc5ccccc5[nH]4)[nH]3)CC2)cc1 [Example 6, 2-(5-((4-(4-methoxybenzyl)piperidin-1-yl)methyl)-4H-1,2,4-triazol-3-yl)-1H-indole] | – | 88.63 | – | 88.83 | – | 70.39
c1ccc(CC2CCN(Cc3nnc(-c4ccccc4)[nH]3)CC2)cc1 [Example 9, 4-benzyl-1-((5-phenyl-4H-1,2,4-triazol-3-yl)methyl)piperidine] | – | 32.29 | – | 73.45 | – | 95.15
COc1cc2cc(-c3nnc(CN4CCC(Cc5ccccc5)CC4)[nH]3)[nH]c2cc1OC [Example 12, 2-(5-((4-benzylpiperidin-1-yl)methyl)-4H-1,2,4-triazol-3-yl)-5,6-dimethoxy-1H-indole] | 174 | 5.96 | 36 | 3.38 | 1150 | 63.05
COC(=O)c1ccc2[nH]c(-c3nnc(CN4CCC(Cc5ccccc5)CC4)[nH]3)cc2c1 [Example 20, methyl 2-(5-((4-benzylpiperidin-1-yl)methyl)-4H-1,2,4-triazol-3-yl)-1H-indol-5-carboxylate] | 80 | 5.14 | 748 | 38.22 | 643 | 50.14
c1ccc(CC2CCN(Cc3nnc(-c4ccc5ccccc5c4)[nH]3)CC2)cc1 [Example 21, 4-benzyl-1-((5-(naphthalen-2-yl)-4H-1,2,4-triazol-3-yl)methyl)piperidine] | 259 | 20.41 | 619 | 27.49 | 2090 | 50.05
c1ccc(CC2CCN(Cc3nnc(-c4c[nH]c5ccccc45)[nH]3)CC2)cc1 [Example 22, 3-(5-((4-benzylpiperidin-1-yl)methyl)-4H-1,2,4-triazol-3-yl)-1H-indole] | 187 | 19.30 | 644 | 32.07 | 945 | 47.99
FC(F)(F)c1ccc2[nH]c(-c3nnc(CN4CCC(Cc5ccccc5)CC4)[nH]3)cc2c1 [Example 23, 2-(5-((4-benzylpiperidin-1-yl)methyl)-4H-1,2,4-triazol-3-yl)-5-(trifluoromethyl)-1H-indole] | – | 46.60 | – | 90.00 | – | 125.38
c1ccc(CC2CCN(Cc3nnc(-c4cc5ccccc5o4)[nH]3)CC2)cc1 [Example 25, 1-((5-(benzofuran-2-yl)-4H-1,2,4-triazol-3-yl)methyl)-4-benzylpiperidine] | – | 26.92 | – | 76.00 | – | 73.17
CC(=O)Nc1ccc2[nH]c(-c3nnc(CN4CCC(Cc5ccccc5)CC4)[nH]3)cc2c1 [Example 66, N-(2-(5-((4-benzylpiperidin-1-yl)methyl)-4H-1,2,4-triazol-3-yl)-1H-indol-5-yl)acetamide] | – | 51.59 | – | 58.77 | – | –
CCCCOc1ccc2cc(-c3nnc(CN4CCC(Cc5ccccc5)CC4)[nH]3)[nH]c2c1 [Example 69, 2-(5-((4-benzylpiperidin-1-yl)methyl)-4H-1,2,4-triazol-3-yl)-6-butoxy-1H-indole] | – | 50.33 | – | 90.43 | – | –

More lines, now with the values ahead:

IC50 [1] [nM] | Triple reuptake inhibition (Ratio %) DAT [1] [%] | IC50 [2] [nM] | Triple reuptake inhibition (Ratio %) NET [2] [%] | IC50 [3] [nM] | Triple reuptake inhibition (Ratio %) SERT [3] [%] | Structure (SMILES)
170 | 14.90 | 343 | 26.06 | 3730 | 91.56 | c1ccc(CC2CCN(Cc3nnc(-c4cc5ccccc5[nH]4)[nH]3)CC2)cc1 [Example 1, 2-(5-((4-benzylpiperidin-1-yl)methyl)-4H-1,2,4-triazol-3-yl)-1H-indole]
83 | 3.94 | 14 | 2.58 | 5200 | 67.47 | Fc1ccc2[nH]c(-c3nnc(CN4CCC(Cc5ccccc5)CC4)[nH]3)cc2c1 [Example 2, 2-(5-((4-benzylpiperidin-1-yl)methyl)-4H-1,2,4-triazol-3-yl)-5-fluoro-1H-indole]
– | 73.88 | – | 103.43 | – | 79.48 | Clc1ccc(CC2CCN(Cc3nnc(-c4cc5ccccc5[nH]4)[nH]3)CC2)cc1 [Example 7, 2-(5-((4-(4-chlorobenzyl)piperidin-1-yl)methyl)-4H-1,2,4-triazol-3-yl)-1H-indole]
– | 32.29 | – | 66.48 | – | 88.65 | Clc1cccc(CC2CCN(Cc3nnc(-c4cc5ccccc5[nH]4)[nH]3)CC2)c1 [Example 8, 2-(5-((4-(3-chlorobenzyl)piperidin-1-yl)methyl)-4H-1,2,4-triazol-3-yl)-1H-indole]
– | 10.00 | 70 | 4.78 | 1210 | 60.60 | COc1ccc2[nH]c(-c3nnc(CN4CCC(Cc5ccccc5)CC4)[nH]3)cc2c1 [Example 13, 2-(5-((4-benzylpiperidin-1-yl)methyl)-4H-1,2,4-triazol-3-yl)-5-methoxy-1H-indole]
16 | 7.44 | 173 | 5.84 | 1660 | 74.39 | Clc1ccc2[nH]c(-c3nnc(CN4CCC(Cc5ccccc5)CC4)[nH]3)cc2c1 [Example 14, 2-(5-((4-benzylpiperidin-1-yl)methyl)-4H-1,2,4-triazol-3-yl)-5-chloro-1H-indole]
173 | 21.04 | 1110 | 49.82 | 25000 | 83.60 | Cc1ccc2[nH]c(-c3nnc(CN4CCC(Cc5ccccc5)CC4)[nH]3)cc2c1 [Example 15, 2-(5-((4-benzylpiperidin-1-yl)methyl)-4H-1,2,4-triazol-3-yl)-5-methyl-1H-indole]
48 | 12.06 | 501 | 36.38 | 3650 | 80.93 | Fc1ccc2cc(-c3nnc(CN4CCC(Cc5ccccc5)CC4)[nH]3)[nH]c2c1 [Example 16, 2-(5-((4-benzylpiperidin-1-yl)methyl)-4H-1,2,4-triazol-3-yl)-6-fluoro-1H-indole]
83 | 9.25 | 226 | 11.66 | 945 | 50.31 | N#Cc1ccc2[nH]c(-c3nnc(CN4CCC(Cc5ccccc5)CC4)[nH]3)cc2c1 [Example 17, 2-(5-((4-benzylpiperidin-1-yl)methyl)-4H-1,2,4-triazol-3-yl)-1H-indol-5-carbonitrile]
76 | 37.07 | 611 | 22.07 | 1580 | 66.40 | COc1ccc2cc(-c3nnc(CN4CCC(Cc5ccccc5)CC4)[nH]3)[nH]c2c1 [Example 18, 2-(5-((4-benzylpiperidin-1-yl)methyl)-4H-1,2,4-triazol-3-yl)-6-methoxy-1H-indole]
247 | 21.23 | 188 | 15.80 | 1170 | 81.23 | COc1cccc2cc(-c3nnc(CN4CCC(Cc5ccccc5)CC4)[nH]3)[nH]c12 [Example 19, 2-(5-((4-benzylpiperidin-1-yl)methyl)-4H-1,2,4-triazol-3-yl)-7-methoxy-1H-indole]
– | 6.56 | – | 26.69 | – | 109.21 | Clc1cccc2[nH]c(-c3nnc(CN4CCC(Cc5ccccc5)CC4)[nH]3)cc12 [Example 24, 2-(5-((4-benzylpiperidin-1-yl)methyl)-4H-1,2,4-triazol-3-yl)-4-chloro-1H-indole]
